pEC50: −log10 of the molar value.
Legend:
[1] = system: T1, CpomOR22; assay: SSR dose response and GC-SSR in transgenic Drosophila ab3A neurons; design: species or system Cydia pomonella
T1 construct: gene OR22

[2] = system: T2, CpomOR22; assay: two-electrode voltage clamp, Xenopus oocytes, dose response; also GC-SSR; assay type: cell-based, Cydia pomonella
T2 construct: gene OR22; with CpomOrco

[3] = system: T2, CpomOR22; assay: two-electrode voltage clamp, Xenopus oocytes, dose response; assay type: cell-based, Cydia pomonella
Excerpt: two-electrode voltage clamp, Xenopus oocytes, dose response on CpomOR22 | CpomOR22 dose responsiveness to undecanal and γ-undecalactone across five orders of magnitude

`CCCC/C=C\CCCCC=O` [(Z)−6-undecenal] gave an EC50 [1] of 2.903 ± 1.709 µg.
For `CCCCCCCCCCC=O` [undecanal], the pEC50 [2] was 4.78.
Work on `CCCCCCCC1CCC(=O)O1` (stereo not drawn) [γ-undecalactone] yielded a pEC50 [3] of 5.08.
